Data from article PMC10647589, “Heterogeneous Cellular Response of Primary and Metastatic Human Gastric Adenocarcinoma Cell Lines to Magnoflorine and Its Additive Interaction with Docetaxel” (International Journal of Molecular Sciences, 2023).

Experiments:
[1] = tested on: ACC-201 human GC cells; assay: Active caspase-3 analysis (flow cytometry); assay type: cell-based; conditions: ACC-201, MGN 10 µg/mL, 72 h
Description: (§1) Human GC cells ACC-201, AGS, MKN-74 and NCI-N87 were seeded in 6-well plates and allowed to adhere overnight. On the following day, the growth medium was replaced with fresh medium, and the cells were exposed to indicated concentrations of MGN (10–40 µg/mL) for 72 h. Apoptotic cells were analyzed using PE Active Caspase-3 Apoptosis Kit (BD Biosciences) according to the manufacturer’s instructions. Briefly, the cells were collected, washed with cold PBS and then incubated in Cytofix/Cytoperm Solution for 20 min on ice. After two washes, the cells were incubated with Active Caspase-3 Antibody in Perm/Wash Buffer for 30 min at room temperature. Finally, the cells were resuspended in Perm/Wash Buffer and quantitative analysis of 10,000 cells per sample was performed through the use of FACS CaliburTM flow cytometer (BD Biosciences, Mountain View, CA, USA).

[2] = tested on: AGS human GC cells; assay: Active caspase-3 analysis (flow cytometry); assay type: cell-based; conditions: 72 h
Description: as §1

[3] = tested on: MKN-74 human GC cells; assay: Active caspase-3 analysis (flow cytometry); assay type: cell-based; conditions: MKN-74, MGN 10 µg/mL, 72 h
Description: as §1

[4] = tested on: ACC-201 human GC cells; assay: MTT assay (viability; isobolographic analysis); assay type: cell-based; conditions: ACC-201, 72 h incubation, mean ± SEM
Description: (§2) The human GC cells ACC-201, AGS, MKN-74 and NCI-N87 were placed in 96-well plates and allowed to adhere overnight. On the following day, the growth medium was removed, and the cells were treated with a series of tested MGN and DCT dilutions (2.0–75 and 0.0004–0.0404 µg/mL, respectively) for 72 h at 37 °C. […] Subsequently, a solution of MTT (5 mg/mL) was added to each well, and the cells were further incubated for 3 h at 37 °C. Tetrazolium salt was reduced to violet formazan derivatives via the succinate dehydrogenase of metabolically active cells. Insoluble formazan compounds formed inside the cells were extracted with a sodium dodecyl sulfate buffer (10% SDS in 0.01 N HCl) overnight to achieve a quantitative assessment of the amount produced. The absorbance of the samples was measured at 570 nm using Infinite M200 Pro microplate reader (Tecan, Männedorf, Switzerland). Cell viability was presented as a percentage relative to the untreated control cells.
(§3) Interactions between MGN and DCT analyzed after 72 h in four different GC cell lines (ACC-201, AGS, MKN-74 and NCI-N87) were characterized by means of an isobolographic analysis in the MTT assay. The percentage inhibition of cell viability accompanied by the specific concentrations of the tested substances (MGN and DCT) were transferred to the MS Excel spreadsheet, and the data were computed using the log–probit method. Next, the concentration–response effect graphs for the tested drugs (MGN and DCT) were drawn, and the IC50 values for every tested drug were calculated. The cooperative effect of two concentration–response lines was tested for the MGN and DCT combination, as previously described. The calculations of IC50 values (±SEM) were computed with formulas originally derived from the log–probit method and adapted to the in vitro conditions, as described earlier. The concentration–response lines for MGN and DCT were not parallel, and thus, the isobolographic additivity was illustrated graphically as an area bounded by two (upper and lower) lines of additivity. From the experimentally denoted IC50 values for MGN and DCT in the MTT assay, median additive inhibitory concentrations (IC50add) for the mixture (at the fixed ratio of 1:1 of MGN and DCT) in various cell lines (ACC-201, AGS, MKN-74 and NCI-N87) were calculated, as described previously. More information on isobolographic analysis can be found in the literature.

[5] = tested on: AGS human GC cells; assay: MTT assay (viability; isobolographic analysis); assay type: cell-based; conditions: 72 h incubation, mean ± SEM
Description: as §2, §3

[6] = tested on: MKN-74 human GC cells; assay: MTT assay (viability; isobolographic analysis); assay type: cell-based; conditions: MKN-74, 72 h incubation, mean ± SEM
Description: as §2, §3

[7] = tested on: NCI-N87 human GC cells; assay: MTT assay (viability; isobolographic analysis); assay type: cell-based; conditions: NCI-N87, 72 h incubation, mean ± SEM
Description: as §2, §3

[8] = tested on: zebrafish larvae; assay: Locomotor activity assay in larval zebrafish; assay type: in vivo; conditions: MGN 100, 175 or 250 µg/mL, after 95 h incubation
Description: Locomotor activity was examined to determine whether chronic MGN exposure may induce neurotoxic effects in fish. Noldusapparatus (EthoVision XT, Wageningen, The Netherlands) was used for this purpose. After 95 h of incubation in different doses of MGN (100, 175 or 250 µg/mL), each larva was placed individually in the wells of a 48-well plate filled with 300 µL of the medium. After 15 min of habituation, larval activity was tracked in the light phase for a period of 30 min. The distance covered by each larva in millimeters (mm) was assessed.

[9] = tested on: zebrafish embryos and larvae; assay: Zebrafish embryo toxicity test (OECD test no. 236, modified); assay type: in vivo
Description: At first, zebrafish embryos were screened and sorted one hour after fertilization. Only perfectly transparent and fertilized embryos were transferred to plastic well plates. […] Developing embryos were incubated in the MGN solutions until 96 hpf. The amounts of MGN absorbed by zebrafish were measured in 96 hpf-old larvae (n = 50 larvae/sample, three samples/dose) through the use of HPLC-MS. The larvae were first washed in medium prior to homogenization with the additive of acetonitrile:water mixture in equal proportions (50:50 v/v). The homogenate was centrifuged at 20,000 rpm for 20 min, and the supernatant was pipetted, filtered through a nylon syringe filter (nominal pore size of 0.1 µm diameter) and subjected to HPLC-MS analysis in the positive ionization mode.
The following phenotypic features were scored in larvae exposed to different doses of MGN: (I) hatchability at 72 and 96 hpf, (II) morphological anomalies at 96 hpf, and (III) escape response at 96 hpf. Morphological analysis included the presence/lack of swim bladder, body axis/shape, presence/lack of pericardial edema, jaw development, normal/necrotic yolk sac, presence/absence of hemorrhage and changes in pigmentation. For photographs, each larva was anaesthetized and mounted on a glass slide. To evaluate the muscle performance and function in MGN-incubated larvae, in a separate cohort of 96 hours-old larvae, we assessed escape response by touching the tail with the tip of a needle.

For COc1ccc2c(c1O)-c1c(O)c(OC)cc3c1[C@H](C2)[N+](C)(C)CC3 [MGN, magnoflorine], the “% cells with active caspase-3” value [1] was 6.770 ± 0.866%, the “% cells with active caspase-3” value ([2]; MGN 10 µg/mL) was 2.390 ± 0.411% and the “% cells with active caspase-3” value ([2]; MGN 20 µg/mL) was 4.172 ± 0.422%. The “% cells with active caspase-3” value [3] was 2.633 ± 0.069%, the IC50 [4] was 15.8 ± 2.79 µg/mL and the IC50 [5] was 17.2 ± 3.59 µg/mL. The IC50 [6] was 34.8 ± 6.04 µg/mL, the IC50 [7] was 33.3 ± 5 µg/mL and the “locomotor activity: distance travelled within 30 min vs control” value [8] was “No differences between the tested groups”. For the same molecule, the Hatching rate ([9]; MGN 100 µg/mL, scored at 72 hpf) was 100%, the Hatching rate ([9]; MGN 100 µg/mL, scored at 96 hpf) was 100% and the Hatching rate ([9]; MGN 175 µg/mL, scored at 72 hpf) was 100%. It also gave a Hatching rate ([9]; MGN 175 µg/mL, scored at 96 hpf) of 100%, a Hatching rate ([9]; MGN 250 µg/mL, scored at 72 hpf) of 52.77% and a Hatching rate ([9]; MGN 250 µg/mL, scored at 96 hpf) of 94.44%. The “larvae with curved body axis” value ([9]; MGN 500 µg/mL, 96 hpf) was 43%, the “larvae with delayed touch response” value ([9]; MGN 500 µg/mL, 96 hpf) was 70% and the “larvae with heart edema” value ([9]; MGN 500 µg/mL, 96 hpf) was 40%. For the same molecule, the “larvae with lack of swim bladder” value ([9]; MGN 500 µg/mL, 96 hpf) was 93%, the “larvae with underdeveloped jaw” value ([9]; MGN 500 µg/mL, 96 hpf) was 90% and the “larvae with yolk sac necrosis” value ([9]; MGN 500 µg/mL, 96 hpf) was 46%. The Hatching rate ([9]; MGN 500 µg/mL, scored at 72 hpf) was 23.33%, the Hatching rate ([9]; MGN 500 µg/mL, scored at 96 hpf) was 86.66% and the “Hatching” value ([9]; MGN 750 µg/mL, up to 96 h) was “none of the larvae hatched”. For the same molecule, the “Survival” value ([9]; MGN 750 µg/mL, up to 96 h) was “all survived in chorions”, the “concentration with no evidence of toxicity” value ([9]; developing zebrafish, chronic exposure from 1 hpf to 96 hpf) was “up to 250 µg/mL” and the “morphological parameters scored” value ([9]; three lowest concentrations (100, 175, 250 µg/mL), 96 hpf) was “did not affect any of the parameters scored”.
